{"source": "patent US10537650B2", "about": "“Molecular probes for multimodality imaging and tracking of stem cells” (University of Massachusetts, priority 2012, dated 2020)", "key": {"TC1 wild type mES cells": {"tested_on": "TC1 wild type mES cells", "assay": "Culture and fluorescence microscopy of MTTI-157 labeled TC1 mES cells", "assay_type": "cell-based, mouse", "conditions": "through Day 4, 2 μM and 10 μM dye", "description": "The MTTI-157 labeled mES cells were seeded into 12-well plates with about 0.5×10^6 cells per well to grow under normal culture conditions to evaluate cell viability, differentiation, fluorescence dye stability, and dye partitioning to daughter cells over time. Unlabeled normal TC1 wild type mES cells were used as control. The cell associated fluorescence was detected from the plates on an Olympus IX 70 Inverted Light Microscope (Olympus America, Inc., NY) using a Cy5 filter on Days 0, 1 and 4 after seeding.\nAfter dye labeling, the trypan blue staining was performed to detect cell viability. […] The fluorescence is shown in red and paired with the phase-contrast image on its right. […] It is obvious from Rows 2 and 3 that the MTTI-157 incorporated into the mES cells. […] By the next day (Day 1), the cells begin to merge forming clones, as expected, and the fluorescence is seen distributed within the clones with passage to other members of the cell cluster, i.e., the daughter cells. On Day 4, the cell clusters are now larger and more cells within the cluster appear to carry the fluorescence signal."}, "Wild type mES cells BL/6": {"tested_on": "Wild type mES cells BL/6", "assay": "Flow cytometry of BL/6 mES cells labeled with MTTI-157 (percent labeled cells)", "assay_type": "cell-based, mouse", "source_text": "Unlabeled BL/6 cells were used as a control."}, "LS174T cells [1]": {"tested_on": "LS174T cells", "assay": "Flow cytometry of LS174T cells labeled with MTTI-157: labeling efficiency under different conditions", "assay_type": "cell-based, human", "conditions": "for labeling efficiency: Set 1, dye dissolved in ethanol", "description": "The method for LS174T cells labeling with MTTI-157 was as described as before. Briefly, LS174T cells were trypsinized, collected, and washed twice with MEM without serum and then resuspended in Diluent C. Immediately, prior to staining; a 2× working dye stock solution in Diluent C was prepared. The cell suspension was added rapidly to an equal volume of the 2× working dye solution and immediately mixed by pipetting up. […] Subsequently, the cell suspension was spun at 400 g for 5 min. […] After labeling, the labeled cells were fixed in 2% paraformaldehyde and analyzed by flow cytometry.\nMTTI-157 was dissolved in ethanol at the concentration of 2 μg/μL.\nMTTI-157 was dissolved in DMSO at the concentration of 2 μg/μL."}, "LS174T cells [2]": {"tested_on": "LS174T cells", "assay": "Optimization of dye concentrations: flow cytometry of LS174T cells labeled with six DiD dyes", "assay_type": "cell-based, human", "description": "(§1) The human colon cancer cell line LS174T was used here as a model to identify the optimal dyes marker with minimal transfer to neighbor cells for cell tracking. A family of DiD dyes (Ex: 648 nm, Em: 667 nm) with variable lipophilic aliphatic tails (Cm/Cn here refer to lengths lipophilic aliphatic tails in the number of C atoms) were investigated: MT279 (C22/C3), MT280 (C22/C12), MT284 (C14/C3), MT285 (C14/C14), CN1012 (C20/C20), MTTI-157 without the DOTA (C22/C22). LS174T cells were cultured in minimal essential medium (MEM) with nonessential amino acids, 10% fetal bovine serum (FBS) and 1% penicillin/streptomycin at 37° C. in a humidified atmosphere with 5% CO2 and were passaged weekly.\nFour working dye stock solutions were investigated. LS174T cells were trypsinized, collected, and washed twice with MEM without serum when the flask was 90% confluent. […] Immediately, prior to staining, 2× working dye stock solutions (1 μM, 4 μM, 10 μM or 20 μM) in Diluent C were prepared. Then 500 μl of cell suspension was added rapidly into 500 μl of 2× working dye and immediately mixed by pipetting. […] The labeled cells were fixed in 2% paraformaldehyde and analyzed by flow cytometry."}, "LS174T cells [3]": {"tested_on": "LS174T cells", "assay": "Dye transfer: co-culture of dye labeled and unlabeled LS174T cells, flow cytometry", "assay_type": "cell-based, human", "description": "as §1\nLS174T cells were trypsinized, collected, and washed twice with MEM without serum and labeled with the six dyes according to the method described above. […] Study sets are described below. One (1) ml of the cell suspension was added rapidly to 1 ml of 2× working dye solution and immediately mixed by pipetting. […] Subsequently, the cells suspension was spun at 400 g for 10 min. […] The cell viability was determined by trypan blue staining. The dye labeled cells were co-cultured with an equal number of unlabeled cells under normal culture conditions. Samples were removed at 0 h, 24 h and 48 h after initiation of co-culture and fixed in 2% paraformaldehyde for flow cytometry analysis."}}, "note": "Several values for one entry are separate records, joined by “and”; a condition that tells them apart may be missing. Equal entries are not always repeated.", "data": [{"smiles": "CCCCCCCCCCCCCCCCCCCCCCN1C(=CC=CC=CC2=[N+](CCCCCCCCCCCCCCCCCCCCCC)c3ccc(CNC(=O)CN4CCN(CC(=O)O)CCN(CC(=O)O)CCN(CC(=O)O)CC4)cc3C2(C)C)C(C)(C)c2ccccc21.[I-]", "note": "[MTTI-157]", "values": [{"measurement": "effects on cellular differentiation", "setting": "TC1 wild type mES cells", "value": "no obvious effects on cellular differentiation"}, {"measurement": "percent of labeled cells in total cells", "setting": "Wild type mES cells BL/6; 2 μM dye", "value": 9.8, "unit": "%"}, {"measurement": "percent of labeled cells in total cells", "setting": "Wild type mES cells BL/6; 10 μM dye", "value": 28.7, "unit": "%"}, {"measurement": "percent of labeled cells in total cells", "setting": "Wild type mES cells BL/6; 20 μM dye", "value": 34, "unit": "%"}, {"measurement": "labeling efficiency", "setting": "LS174T cells [1]; final dye concentration 10 μM", "value": "about 60%"}, {"measurement": "labeling efficiency", "setting": "LS174T cells [1]; highest final dye concentration of 20 μM", "value": "about 70%"}, {"measurement": "% labeled cells in total cells by FACS", "setting": "LS174T cells [1]; dye dissolved in DMSO, final dye 10 μM, final cells 10 ×10^7/ml, DMSO in 2x working dye stock 2%", "value": 97.3, "unit": "%"}, {"measurement": "% labeled cells in total cells by FACS", "setting": "LS174T cells [1]; dye dissolved in DMSO, final dye 20 μM, final cells 10 ×10^7/ml, DMSO in 2x working dye stock 4%", "value": 97.9, "unit": "%"}, {"measurement": "% labeled cells in total cells by FACS", "setting": "LS174T cells [1]; dye dissolved in DMSO, final dye 20 μM, final cells 20 ×10^7/ml, DMSO in 2x working dye stock 4%", "value": 98.6, "unit": "%"}, {"measurement": "% labeled cells in total cells by FACS", "setting": "LS174T cells [1]; dye dissolved in DMSO, final dye 40 μM, final cells 10 ×10^7/ml, DMSO in 2x working dye stock 8%", "value": 99.2, "unit": "%"}, {"measurement": "% labeled cells in total cells by FACS", "setting": "LS174T cells [1]; dye dissolved in DMSO, final dye 40 μM, final cells 20 ×10^7/ml, DMSO in 2x working dye stock 8%", "value": 98.5, "unit": "%"}, {"measurement": "% labeled cells in total cells by FACS", "setting": "LS174T cells [1]; dye dissolved in DMSO, final dye 80 μM, final cells 10 ×10^7/ml, DMSO in 2x working dye stock 16%", "value": 99.5, "unit": "%"}, {"measurement": "% labeled cells in total cells by FACS", "setting": "LS174T cells [1]; dye dissolved in ethanol, final dye 2 μM, final cells 1 ×10^7/ml, DMSO in 2x working dye stock 0%", "value": 12.6, "unit": "%"}, {"measurement": "% labeled cells in total cells by FACS", "setting": "LS174T cells [1]; dye dissolved in ethanol, final dye 2 μM, final cells 1 ×10^7/ml, DMSO in 2x working dye stock 2%", "value": 23.7, "unit": "%"}, {"measurement": "% labeled cells in total cells by FACS", "setting": "LS174T cells [1]; dye dissolved in ethanol, final dye 2 μM, final cells 10 ×10^7/ml, DMSO in 2x working dye stock 0%", "value": 29.5, "unit": "%"}, {"measurement": "% labeled cells in total cells by FACS", "setting": "LS174T cells [1]; dye dissolved in ethanol, final dye 10 μM, final cells 1 ×10^7/ml, DMSO in 2x working dye stock 0%", "value": 62.7, "unit": "%"}, {"measurement": "% labeled cells in total cells by FACS", "setting": "LS174T cells [1]; dye dissolved in ethanol, final dye 10 μM, final cells 1 ×10^7/ml, DMSO in 2x working dye stock 2%", "value": 55.9, "unit": "%"}, {"measurement": "% labeled cells in total cells by FACS", "setting": "LS174T cells [1]; dye dissolved in ethanol, final dye 10 μM, final cells 10 ×10^7/ml, DMSO in 2x working dye stock 0%", "value": 57.9, "unit": "%"}, {"measurement": "% labeled cells in total cells by FACS", "setting": "LS174T cells [1]; dye dissolved in ethanol, final dye 20 μM, final cells 1 ×10^7/ml, DMSO in 2x working dye stock 0%", "value": 74.3, "unit": "%"}, {"measurement": "% labeled cells in total cells by FACS", "setting": "LS174T cells [1]; dye dissolved in ethanol, final dye 20 μM, final cells 1 ×10^7/ml, DMSO in 2x working dye stock 2%", "value": 71.1, "unit": "%"}, {"measurement": "% labeled cells in total cells by FACS", "setting": "LS174T cells [1]; dye dissolved in ethanol, final dye 20 μM, final cells 10 ×10^7/ml, DMSO in 2x working dye stock 0%", "value": 75.0, "unit": "%"}, {"measurement": "percent of cells labeled", "setting": "LS174T cells [2]; dye concentration 0.5 μM", "value": 71.5, "unit": "%"}, {"measurement": "percent of cells labeled", "setting": "LS174T cells [2]; dye concentration 2 μM", "value": 92.3, "unit": "%"}, {"measurement": "percent of cells labeled", "setting": "LS174T cells [2]; dye concentration 5 μM", "value": 98.6, "unit": "%"}, {"measurement": "percent of cells labeled", "setting": "LS174T cells [2]; dye concentration 10 μM", "value": 99.4, "unit": "%"}, {"measurement": "Percent of unlabeled cells incorporating dye from labeled cells compared to the value at 0 h", "setting": "LS174T cells [3]; Set 1, 2 μM dye, 24 h of co-culture", "value": 22.39, "unit": "%"}, {"measurement": "Percent of unlabeled cells incorporating dye from labeled cells compared to the value at 0 h", "setting": "LS174T cells [3]; Set 1, 2 μM dye, 48 h of co-culture", "value": 22.74, "unit": "%"}, {"measurement": "Percent of unlabeled cells incorporating dye from labeled cells compared to the value at 0 h", "setting": "LS174T cells [3]; Set 2, 10 μM dye, 24 h", "value": "22% and 22.17%"}, {"measurement": "Percent of unlabeled cells incorporating dye from labeled cells compared to the value at 0 h", "setting": "LS174T cells [3]; Set 2, 10 μM dye, 48 h", "value": "28% and 28.45%"}, {"measurement": "Percent of unlabeled cells incorporating dye from labeled cells compared to the value at 0 h", "setting": "LS174T cells [3]; Set 3, 5 μM dye, 24 h", "value": 6.93, "unit": "%"}, {"measurement": "Percent of unlabeled cells incorporating dye from labeled cells compared to the value at 0 h", "setting": "LS174T cells [3]; Set 3, 5 μM dye, 48 h", "value": 22.16, "unit": "%"}, {"measurement": "dye transfer to unlabeled cells (in words)", "setting": "LS174T cells [3]; Set 4, 0.5 μM dye", "value": "dye transfer took place"}, {"measurement": "Percent of unlabeled cells incorporating dye from labeled cells compared to that at 0 h", "setting": "LS174T cells [3]; Set 4, 0.5 μM dye, 24 h", "value": 13.58, "unit": "%"}, {"measurement": "Percent of unlabeled cells incorporating dye from labeled cells compared to that at 0 h", "setting": "LS174T cells [3]; Set 4, 0.5 μM dye, 48 h", "value": 14.675, "unit": "%"}, {"measurement": "Percent of unlabeled cells incorporating dye from labeled cells compared to that at 0 h", "setting": "LS174T cells [3]; Set 4, 2 μM dye, 24 h", "value": 23.555, "unit": "%"}, {"measurement": "Percent of unlabeled cells incorporating dye from labeled cells compared to that at 0 h", "setting": "LS174T cells [3]; Set 4, 2 μM dye, 48 h", "value": 25.615, "unit": "%"}]}]}
